Here are results for 16 compounds from ChEMBL document CHEMBL4190162, “SAR and identification of 2-(quinolin-4-yloxy)acetamides as Mycobacterium tuberculosis cytochrome bc1 inhibitors” (Medchemcomm, 2016).

Molecules are shown by their SMILES. Values after ≈ are worked out from the molar mass of the structure shown. Active and inactive are the calls of the source.

What is called MIC90 is an inhibitory concentration at the 90% level, which refers to growth in some studies and to a panel of isolates in others. High values mean lower susceptibility, low ones higher susceptibility. A word on the MIC: it is the smallest concentration in the dilution series that meets the test's criterion for growth inhibition. A low value points to inhibition by little substance. The term CC50 denotes the concentration at which the toxic effect on the cells reaches its halfway point.

The subject of data set [1] is Mycobacterium tuberculosis. Briefly: Antimycobacterial activity against Mycobacterium tuberculosis H37Rv measured after 6 days by resazurin dye based fluorescence assay. It counts as functional. The settings on record: 144 h. For orientation: Resazurin is reduced to fluorescent resorufin, in cell work by metabolically active cells.
Data set [2] relates to Mycobacterium tuberculosis. Briefly: Antimycobacterial activity against Mycobacterium tuberculosis H37Rv after 2 weeks by microplate alamar blue assay. It counts as functional. The conditions noted are these: 336 h.
Data set [3] has as its system Mycobacterium tuberculosis. Description: Antimycobacterial activity against Mycobacterium tuberculosis H37Rv measured after 1 week. The data set is classed as functional. The conditions noted are these: 168 h.
Data set [4] deals with Mycobacterium tuberculosis. Briefly: Antimycobacterial activity against Mycobacterium tuberculosis H37Rv measured after 2 weeks. It counts as functional. The conditions noted are these: 336 h.
Data set [5] deals with Mycobacterium tuberculosis. Briefly: Antimycobacterial activity against Mycobacterium tuberculosis H37Rv BSG001. It counts as functional, organism-based.
Data set [6] deals with Mycobacterium tuberculosis H37Rv. Briefly: Inhibition of Mycobacterium tuberculosis H37Rv cytochrome bc1 oxidase assessed as reduction in ATP level measured up to 24 hrs under anaerobic condition.
Data set [7] in a line: Cytotoxicity against human HepG2 cells after 24 to 48 hrs in presence of galactose by trypan blue dye-based hemocytometric method. The data set is classed as cell-based.
A short description of data set [8]: Cytotoxicity against human HepG2 cells after 24 to 48 hrs in presence of glucose by trypan blue dye-based hemocytometric method. The data set is classed as cell-based.
For a further data set, the system named is Escherichia coli. Description: Antibacterial activity against Escherichia coli 25922. The data set is classed as functional, organism-based. The conditions noted are these: ATCC 25922.
The test system of a further data set is Staphylococcus aureus. Description: Antibacterial activity against Staphylococcus aureus XEN36. The data set is classed as functional, organism-based.
For data set [9], the system named is Mycolicibacterium smegmatis. Description: Antibacterial activity against Mycobacterium smegmatis. The data set is classed as functional, organism-based.
Data set [10] deals with Mycobacteroides abscessus. Description: Antibacterial activity against Mycobacterium abscessus. It counts as functional, organism-based.

`Cc1cc(OCC(=O)Nc2ccccc2)c2cc(Br)ccc2n1` had an MIC90 in data set [1] of 0.3 to 3.3 µM (≈ 0.111 to 1.23 µg/mL).
In the case of `COc1ccc2nc(C)cc(OCC(=O)NCc3ccccc3)c2c1`, the MIC in data set [2] was 2.32 µM (≈ 0.78 µg/mL); in data set [3] it was 3.57 µM (≈ 1.2 µg/mL); in data set [4] it was greater than 148 µM. Further, the result in data set [5] was inactive. Besides, the inhibition entry in data set [6] is “Active”. In addition, the CC50 in [7] and in [8] was greater than 149 µM in each case. For the same compound, the MIC90 in data set [1] was in the range of 0.3 to 3.3 µM (≈ 0.101 to 1.11 µg/mL).
On to `COc1ccc2nc(C)cc(OCC(=O)Nc3ccccc3OC)c2c1`, for which the MIC in data set [2] is 1.11 µM (≈ 0.391 µg/mL); in data set [3], 2.21 µM (≈ 0.779 µg/mL); in [4], 53.9 µM (≈ 19 µg/mL). In data set [5], the result was inactive. Moreover, in [6], the inhibition entry was “Active”. The CC50 in data set [7] is 19.6 µM; in [8] it was greater than 142 µM. The compound further yielded an MIC90 in [1] of 0.3 to 3.3 µM (≈ 0.106 to 1.16 µg/mL).
`COc1ccc2nc(C)cc(OCC(=O)Nc3cccc(C)c3)c2c1` showed an MIC90 in data set [1] of 0.3 to 3.3 µM (≈ 0.101 to 1.11 µg/mL).
For the compound `COc1ccc2nc(C)cc(OCC(=O)Nc3ccc(OC)c(OC)c3)c2c1`, the minimum inhibitory concentration (MIC) is 24.6 µM (≈ 9.4 µg/mL) in [2], greater than 131 µM in data set [3] and greater than 131 µM in [4]. The outcome (in data set [5]; in the data set with Escherichia coli; with Staphylococcus aureus; in data set [9]; in data set [10]) was inactive. Besides, the inhibition entry in [6] is “Active”. For the same compound, the CC50 in data set [7] and in data set [8] was greater than 131 µM each time.
`COc1ccc(NC(=O)COc2cc(C)nc3ccc(OC)cc23)c(OC)c1`: the MIC in data set [2] came to 2.04 µM (≈ 0.78 µg/mL); in [3] it was 24.6 µM (≈ 9.4 µg/mL); in [4], 32.7 µM (≈ 12.5 µg/mL). Besides, the result (in data set [5]; in the data set with Escherichia coli; with Staphylococcus aureus; in data set [9]; in data set [10]) was inactive. Moreover, in data set [6], the inhibition entry is “Active”. Also, the CC50 in data set [7] and in data set [8] was greater than 131 µM throughout.
Consider `COc1ccc2nc(C)cc(OCC(=O)Nc3ccc(-c4ccccc4)cc3)c2c1`, for which the MIC in [2] is 1.51 µM (≈ 0.602 µg/mL); in [3] it was greater than 125 µM; in data set [4], greater than 125 µM. Moreover, the outcome (in data set [5]; with Escherichia coli; in the data set on Staphylococcus aureus; in data set [9]; in [10]) was inactive. Also, the inhibition entry in [6] is “Active”. Besides, the CC50 in data set [7] and in [8] was greater than 126 µM throughout.
For `COc1ccc2nc(C)cc(OCC(=O)Nc3ccc4c(c3)OCO4)c2c1`, the MIC is 2.13 µM (≈ 0.78 µg/mL) in data set [2], 4.26 µM (≈ 1.56 µg/mL) in data set [3] and greater than 136 µM in data set [4]. Besides, the result (in data set [5]; in the data set on Escherichia coli; in the data set on Staphylococcus aureus; in data set [9]; in [10]) was inactive. Besides, the inhibition result in [6] is “Active”. The half-maximal cytotoxic concentration (CC50) was 39.6 µM in data set [7] and 80 µM in data set [8].
As to `COc1ccccc1NC(=O)COc1cc(C)nc2ccc(C(F)(F)F)cc12`, the MIC in [2], in data set [3] and in [4] was greater than 128 µM each time. In addition, the outcome (in [5]; in the data set with Escherichia coli; in the data set with Staphylococcus aureus; in [9]; in data set [10]) was inactive. Moreover, the inhibition result in data set [6] is “Active”. Besides, the 50% cytotoxic concentration (CC50) in [7] and in [8] was greater than 128 µM each time.
On to `CCCCCNC(=O)COc1cc(C)nc2ccc(OC)cc12`, for which the MIC turned out to be 19.8 µM (≈ 6.25 µg/mL) in data set [2], 158 µM (≈ 50 µg/mL) in [3] and 158 µM (≈ 50 µg/mL) in data set [4]. The outcome (in [5]; in the data set on Escherichia coli; in the data set on Staphylococcus aureus; in data set [9]; in [10]) was inactive. The inhibition entry in data set [6] was “Active”. Besides, the 50% cytotoxic concentration (CC50) in [7] was 106 µM; in data set [8] it was greater than 158 µM.
Regarding `COc1ccccc1NC(=O)COc1cc(C)nc2ccc(C)cc12`, the minimum inhibitory concentration (MIC) in data set [2] is 9.3 µM (≈ 3.13 µg/mL); in [3] it was 56.5 µM (≈ 19 µg/mL); in data set [4], greater than 74 µM. In addition, the result (in data set [5]; in the data set on Escherichia coli; with Staphylococcus aureus; in data set [9]; in data set [10]) was inactive. Besides, in [6], the inhibition entry is “Active”. The CC50 in data set [7] and in data set [8] was greater than 74 µM in each case.
`Cc1cc(OCC(=O)NCc2ccccc2)c2cc(Br)ccc2n1` came in with an MIC90 in data set [1] of 0.3 to 3.3 µM (≈ 0.116 to 1.27 µg/mL).
Regarding `COc1ccc(OC)c(CCNC(=O)COc2cc(C)nc3ccc(OC)cc23)c1`, the MIC in data set [2] is 60.9 µM (≈ 25 µg/mL); in data set [3], 122 µM (≈ 50 µg/mL); in data set [4], greater than 122 µM. Besides, the outcome (in data set [5]; with Escherichia coli; with Staphylococcus aureus; in data set [9]; in [10]) was inactive. For the same compound, the inhibition result in [6] was “Active”. Besides, the CC50 in data set [7] and in data set [8] was greater than 122 µM each time.
As to `C#CCNC(=O)COc1cc(C)nc2ccc(OC)cc12`, the MIC in data set [2], in [3] and in data set [4] was greater than 176 µM throughout. The outcome (in [5]; with Escherichia coli; in the data set on Staphylococcus aureus; in [9]; in data set [10]) was inactive. The inhibition entry in data set [6] was “Active”. The CC50 in [7] and in [8] was greater than 176 µM each time.
`COc1ccc(NC(=O)COc2cc(C)nc3ccc(OC)cc23)cc1`: the minimum inhibitory concentration (MIC) in data set [2] was 1.11 µM (≈ 0.391 µg/mL); in data set [3], 2.21 µM (≈ 0.779 µg/mL); in [4], greater than 142 µM. The outcome (in [5]; in the data set with Escherichia coli; with Staphylococcus aureus; in data set [9]; in [10]) was inactive. Also, the inhibition result in [6] is “Active”. Also, the CC50 in data set [7] and in [8] was greater than 142 µM in each case.
Regarding `COc1cc(NC(=O)COc2cc(C)nc3ccc(OC)cc23)cc(OC)c1`, the figures for the MIC in data set [2], in data set [3] and in data set [4] were 24.6 µM (≈ 9.4 µg/mL), greater than 131 µM and greater than 131 µM, respectively. Moreover, the outcome (in data set [5]; in the data set with Escherichia coli; in the data set on Staphylococcus aureus; in data set [9]; in [10]) was inactive. The inhibition result in [6] is “Active”. For the same compound, the CC50 in [7] and in data set [8] was greater than 131 µM each time.
